The numbers were not newly measured in patent publication US10640746B2, “Synthetic methylotrophs” (UNIVERSITY OF DELAWARE, priority 2016, dated 2020), which cites them from elsewhere.

What all share (settings): in vitro
Data set [1] concerns Bacillus methanolicus MGA3 (Bme) methanol dehydrogenase 3 (Bme Mdh3, BmMdh3).
For data set [2], the system named is Bacillus stearothermophilus 2334 (Bst) methanol dehydrogenase (Bst Mdh, BsMdh).
The test system of data set [3] is Corynebacterium glutamicum R (Cgl R) alcohol dehydrogenase A (Cgl AdhA, CgAdhA; GenBank BAF55711.1; SEQ ID NO: 1).

Consider `CO` [MeOH, methanol], for which the Vmax (commonly the top rate of the reaction or transport when substrate is in excess) in data set [1] was 0.07 µmol/min/mg; in data set [2], 2.1 µmol/min/mg; in data set [3], 0.7 µmol/min/mg. Also, the Michaelis-Menten constant (Km) (as a rule, the concentration of substrate that gives half-maximal velocity) in data set [2] was 20000 µM; in data set [3], 3 mM.

On to `CCCO` [n-PrOH, propanol], for which the Vmax was 3.5 µmol/min/mg in data set [1] and 7.7 µmol/min/mg in data set [3]. Also, the Km in data set [2] was 20 µM; in data set [3], 7.5 mM.

Take `CCO` [EtOH, ethanol]: the Vmax was 2 µmol/min/mg in data set [1] and 7.8 µmol/min/mg in data set [3]. The Km in data set [2] was 80 µM; in data set [3], 6.8 mM.

`CCCCO` [n-BuOH, n-butanol]: the Vmax in data set [1] is 2.3 µmol/min/mg; in data set [3], 8.9 µmol/min/mg. Moreover, the Km in data set [2] was 10 µM; in data set [3] it was 35 mM.
